Assay results: patent US20140357512A1, “HISTONE DEACETYLASE (HDAC) BIOMARKERS IN MULTIPLE MYELOMA” (priority 2013, published 2014)

Test system: human myeloma cell line MM.1S
Test: SILAC acetylated-lysine peptide profiling, HDAC inhibitor vs DMSO (light/heavy ratio)
Format: cell-based
Excerpt: An embodiment of the invention comprises utilizing the SILAC method in order to quantitate changes in protein expression between two or more populations of cells. The SILAC method is a technique based on mass spectrometry that detects differences in protein abundance among samples using non-radioactive isotopic labeling. The SILAC method is known in the art, and described in detail in Ong et al., “Stable Isotope Labeling by Amino Acids in Cell Culture, SILAC, as a Simple and Accurate Approach to Expression Proteomics”, Molecular & Cellular Proteomics, vol. 1, pp. 376-386 (2002), which is incorporated herein by reference in its entirety.
Briefly, the SILAC method involves growing two populations of cells in cell culture. The first population of cells is grown in growth media containing normal amino acids (“normal media”). The second population of cells is grown in media lacking a standard essential amino acid (such as lysine), but is then supplemented with a non-radioactive, isotopically labeled form of that essential amino acid (such as lysine labeled with ^13C atoms, rather than normal ^12C atoms), which is called “heavy media”. When the two populations of cells are each growing in the medium, they incorporate the amino acids into all of their proteins. The growth of cells maintained in the heavy media is no different from that in normal media. All peptides containing the heavy amino acids are heavier than their normal counterparts. The cells from each of the two populations of cells are lysed. The lysates from each of the two cell populations are then combined. The combined cell lysates are then analyzed by mass spectrometry. Pairs of chemically identical peptides of different stable isotope composition can be differentiated in a mass spectrometer due to their difference in mass. The ratio of peak intensities in the mass spectrum for such peptide pairs reflects the abundance ratio for the two proteins.
This example describes SILAC studies that were performed to compare the effects of three different HDAC inhibitors (Compound A, Compound B, and tubastatin A) to a control on a human multiple myeloma cell line. The HDAC inhibitors were also compared amongst themselves to determine differences in their effects.
A human myeloma cell line MM.1S was grown using either ^12C (light) or ^13C (heavy) lysine containing culture medium. The “heavy” cells were treated with DMSO as the control, and the “light” cells were treated with a single HDAC inhibitor at 37° C. for 6 hours. The heavy and light cells were lysed, and the lysates were mixed in 1:1 ratio and digested with the protease trypsin. The acetylated lysine containing peptides (due to the action of the HDAC inhibitor) in the digested peptide pool were captured by a non-specific anti-acetylated lysine antibody cocktail (the antibodies identify both light and heavy acetylated peptides), and subjected to mass spectrometry analysis in order to identify thousands of individual peptides.
Thousands of peptides were identified in pairs (^12C and ^13C) due to their known mass differences. The amino acid sequence and quantitative ratio (Light/Heavy) of a given peptide in two differentially treated cell lysates were then determined and annotated with their possible protein (gene) sources.
As stated above, three HDAC inhibitors (Compound A, Compound B, and Tubastatin A) were used. Thus, the SILAC method was performed three times, with a different HDAC inhibitor compared to a control each time. Accordingly, there are three pairs of quantitative data in the table below, i.e., Compound A:DMSO, Compound B:DMSO, and Tubastatin A:DMSO. A cut-off of 1.30 fold of change (increase or decrease) was then used to determine “changed” or “+” in the table, and any peptides with a fold of change less than 1.3 fold were determined to be “unchanged” or “0” in the table. Those peptides that were not identified were marked as “NA” in the table. […]

Q: For `O=C(NO)c1cnc(NC2(c3cccc(F)c3)CCCCC2)nc1` [Compound B, 2-((1-(3-fluorophenyl)cyclohexyl)amino)-N-hydroxypyrimidine-5-carboxamide], which “L/H ratio of acetylated peptide” value (VETFSGVYK(ac)K (SEQ ID NO: 445), 40S ribosomal protein S7 [178], RPS7) is on record?
A: Its value is −0.78 log 2.

Q: And the “L/H ratio of acetylated peptide” value (VEWAK(ac)FQER (SEQ ID NO: 447), Splicing factor 3A subunit 1 [251], SF3A1)?
A: Its value is −0.55 log 2.

Q: What about the “light to heavy ratio (L/H ratio) of acetylated peptide, log 2 scale” value (“light to heavy ratio (L/H ratio) … log 2 scale” below) (VGIVGK(ac)YGTR (SEQ ID NO: 250), 60S ribosomal protein L37a [13], RPL37A) of the same molecule?
A: The value was 0.00.

Q: What about the “L/H ratio of acetylated peptide” value (VIIVVK(ac)DGPGFYTTR (SEQ ID NO: 401), Trifunctional enzyme subunit alpha mitochondrial [540], HADHA) of the same molecule?
A: Its value is −0.70 log 2.

Q: And the “L/H ratio of acetylated peptide TNEK(ac)VELQELNDR (SEQ ID NO: 122)” value (VIM [104], log 2 scale, drug vs DMSO)?
A: Its value is 0.00.

Q: And the “L/H ratio of acetylated peptide FANYIDK(ac)VR (SEQ ID NO: 118)” value (VIM [120], log 2 scale, drug vs DMSO)?
A: The value was 0.00.

Q: And the “L/H ratio of acetylated peptide […](ac)GQGK (SEQ ID NO: 119)” value (VIM [139], log 2 scale, drug vs DMSO)?
A: Its value is 0.00.

Q: And the “L/H ratio of acetylated peptide SK(ac)[…] (SEQ ID NO: 121)” value (VIM [294], log 2 scale, drug vs DMSO)?
A: The value was 0.00.

Q: What about the “L/H ratio of acetylated peptide LQDEIQNMK(ac)EEMAR (SEQ ID NO: 120)” value (VIM [373], log 2 scale, drug vs DMSO) of the same molecule?
A: The value was 0.00.

Q: What about the “light to heavy ratio (L/H ratio) … log 2 scale” value (VVVGK(ac)[…] (SEQ ID NO: 193), Protein disulfide-isomerase A4 [533], PDIA4) of the same molecule?
A: Its value is 0.00.

Q: And the “L/H ratio of acetylated peptide” value (VYISK(ac)CYR (SEQ ID NO: 394), Isoform 1 of Regulator of micro-tubule dynamics protein 3 [426], FAM82A2)?
A: Its value is −0.85 log 2.

Q: And the “light to heavy ratio (L/H ratio) of acetylated peptide TLLIK(ac)TVETR (SEQ ID NO: 269)” value (Vimentin [445], VIM, drug:DMSO)?
A: Its value is 0.00 log 2.

Q: And the “L/H ratio of acetylated peptide” value (WTPEVK(ac)[…] (SEQ ID NO: 442), Rho-related GTP-binding protein RhoC [104], RHOC)?
A: The value was −0.39 log 2.

Q: And the “light to heavy ratio (L/H ratio) of acetylated peptide IAAYK(ac)SILQER (SEQ ID NO: 531)” value (X-ray repair cross-complementing protein 5 [265], gene XRCC5, inhibitor:DMSO)?
A: The value was 0.00 log 2.

Q: What about the “light to heavy ratio (L/H ratio) of acetylated peptide EEAIK(ac)FSEEQR (SEQ ID NO: 509)” value (X-ray repair cross-complementing protein 5 [648], gene XRCC5, inhibitor:DMSO) of the same molecule?
A: Its value is 0.00 log 2.

Q: What about the “light to heavy ratio (L/H ratio) of acetylated peptide […](ac)HFQD (SEQ ID NO: 355)” value (X-ray repair cross-complementing protein 6 [605], XRCC6, drug:DMSO) of the same molecule?
A: Its value is −0.74 log 2.

Q: What about the “L/H ratio of acetylated peptide ALQEK(ac)VEIK (SEQ ID NO: 123)” value (XRCC5 [665], log 2 scale, drug vs DMSO) of the same molecule?
A: Its value is 0.00.

Q: And the “L/H ratio of acetylated peptide” value (YHVSEK(ac)PYGIVEK (SEQ ID NO: 424), NADH dehydrogenase [ubiquinone] 1 beta subcomplex subunit 6 [93], NDUFB6)?
A: The value was −1.00 log 2.

Q: And the “L/H ratio of acetylated peptide” value (YK(ac)[…] (SEQ ID NO: 417), Microsomal glutathione S-transferase 3 [37], MGST3)?
A: Its value is −0.59 log 2.

Q: What about the “light to heavy ratio (L/H ratio) … log 2 scale” value (YLENGK(ac)ETLQR (SEQ ID NO: 163), Putative HLA class I histocompatibility antigen alpha chain H [200], HLA-H) of the same molecule?
A: Its value is 0.00.

Q: What about the “light to heavy ratio (L/H ratio) … log 2 scale” value (YNCDK(ac)MICR (SEQ ID NO: 254), Ubiquitin-605 ribosomal protein L40 [93], UBA52) of the same molecule?
A: Its value is 0.00.

Q: And the “L/H ratio of acetylated peptide” value (YPPPYK(ac)HFWTAES (SEQ ID NO: 461), Isoform 2 of Ubiquitin-associated protein 2-like [976], UBAP2L)?
A: The value was −0.50 log 2.

Q: And the “L/H ratio of acetylated peptide” value (YTEQITNEK(ac)LAMVK (SEQ ID NO: 423), NADH dehydrogenase [ubiquinone] 1 alpha subcomplex subunit 5 [55], NDUFA5)?
A: The value was −0.40 log 2.

Q: What about the “light to heavy ratio (L/H ratio) … log 2 scale” value ([…](ac)AAVR (SEQ ID NO: 220), Tricarboxylate transport protein mitochondrial [97], SLC25A1) of the same molecule?
A: The value was 0.00.

Q: And the “light to heavy ratio (L/H ratio) … log 2 scale” value ([…](ac)DETEFR (SEQ ID NO: 137), UPF0568 protein C14orf166 [20], C14orf166)?
A: The value was 0.00.

Q: And the “L/H ratio of acetylated peptide” value ([…](ac)DGEIYCK (SEQ ID NO: 383), Cysteine and glycine-rich protein 1 [161], CSRP1)?
A: The value was −0.67 log 2.

Q: What about the “L/H ratio of acetylated peptide” value ([…](ac)EKLNER (SEQ ID NO: 406), 60 kDa heat shock protein mitochondrial [387], HSPD1) of the same molecule?
A: The value was 0.40 log 2.

Q: And the “L/H ratio of acetylated peptide” value ([…](ac)FDENAK (SEQ ID NO: 429), Phosphoglycerate kinase 1 [291], PGK1)?
A: The value was 0.60 log 2.

Q: What about the “L/H ratio of acetylated peptide” value ([…](ac)FIAR (SEQ ID NO: 441), Protein RCC2 [293], RCC2) of the same molecule?
A: Its value is 0.75 log 2.

Q: What about the “light to heavy ratio (L/H ratio) … log 2 scale” value ([…](ac)FSDDHYR (SEQ ID NO: 190), NAD(P) transhydrogenase mitochondrial [100], NNT) of the same molecule?
A: Its value is 0.00.

Q: What about the “L/H ratio of acetylated peptide” value ([…](ac)FVER (SEQ ID NO: 460), cDNA FLJ40024 fis clone STOMA2007745 highly similar to UBIQUITIN-[…] E1 [119], UBA1) of the same molecule?
A: The value was 0.44 log 2.

Q: What about the “L/H ratio of acetylated peptide” value ([…](ac)GDSK(ac)NAK (SEQ ID NO: 392), Histone acetyltransferase p300 [1542:1546], EP300) of the same molecule?
A: Its value is 0.53 log 2.
